In patent US9149480B2, “Use of meloxicam for the long-term treatment of musculoskeletal disorders in cats” (Boehringer Ingeleheim Vetmedica GmbH, priority 2010, dated 2015):

System: cats
Test: Retrospective study of long-term meloxicam treatment in aged cats with osteoarthritis: progression of renal disease versus matched untreated controls
Type: in vivo, cat
Conditions: for progression of renal disease: maintenance dose of 0.02 mg/kg; for progression of renal parameters: median maintenance dose 0.02 mg/kg daily; for loss of urine concentrating ability / weight loss: time adjusted AUC change from baseline, Wilcoxon rank-sum-test
Description: The medical records of a feline-only practice were searched for cats with OA being treated with meloxicam during a 4 year period. A diagnosis of OA was based upon any two of the following: owner noted mobility changes and/or physical examination findings or radiographic changes. Cats included were older than 7 years and treated with meloxicam for a duration of more than 6 months. Complete medical records were available for review. Biochemistry, urinalysis and body weight were regularly monitored. The progression of renal disease in the aged non-renal and renal group treated was compared to age matched and IRIS matched untreated controls from the same clinic.
The database of a feline-only practice in suburban Melbourne was searched for cats which had been treated for chronic musculoskeletal disorders with meloxicam (Metacam oral suspension, Boehringer Ingelheim) during a 4 year period. The diagnosis of osteoarthritis or spondylosis deformans had been made based upon any two of the following: owner noted mobility changes, physical examination findings or radiographic changes. The inclusion criteria included cats greater than 7 years old which had been treated continuously with meloxicam for a duration of more than 6 months and which had complete medical records available for review. In addition, cats were only included if serum biochemistry, urine analysis and body weight had been regularly monitored.
Young cats were excluded, as were cats with no pre-treatment renal parameter measurements. In addition cats were also excluded if the owner could not be contacted to check that the cats were still receiving daily treatment with meloxicam.
Age, breed, sex, concomitant diseases and medications as well as date treatment commenced, treatment duration and daily dose of meloxicam were recorded.
The presence or absence of pre-treatment renal disease and staging of the renal disease was carried out using plasma creatinine and urine specific gravity according to the following recognised International Renal Interest Society criteria (IRIS staging 2006):
The treated cats were then subdivided into two groups: the renal treated group that belonged to IRIS stage 1-3 and were pre-treated, and the non-renal treated group that has no identifiable renal disease pre-treatment. Urine specific gravity, serum creatinine and bodyweight were used as indicators of renal disease progression. The progression of renal disease was then compared to age and IRIS matched untreated controls were then randomly identified from the database of the same clinic.
The median age of the renal and non-renal treated cats, median treatment duration and median maintenance dose was calculated.
The progression of renal disease in the non-renal treated group was compared to the age matched untreated controls. The progression of renal disease in the treated renal-diseased group was compared to age matched and IRIS matched untreated controls from the same clinic. Statistical analysis was carried out using a time adjusted area-under-the-curve (AUC) changes from baseline time 0 until the last recorded value (n).
The Wilcoxon rank-sum-test was used to compare the groups. With this nonparametric test the distribution of the adjusted AUC of two groups was compared regarding the location. Under the null hypothesis it is assumed that there is no location shift in the distributions of the two treatment groups. If the resulting p-value is lower than the two-sided significance level of 5% the null hypothesis is rejected.

[1] = non-renal group treated with meloxicam vs non-renal group not treated
[2] = renal group treated with meloxicam vs age and IRIS matched untreated renal group

For Cc1cnc(NC(=O)C2=C(O)c3ccccc3S(=O)(=O)N2C)s1 [meloxicam], the “progression of renal disease” value (aged cats with pre-existent stable IRIS stage 1-3 renal disease) was “does not hasten progression of renal disease”, the “progression of renal disease” value (aged cats) was “does not hasten progression of renal disease” and the “median maintenance dose after dose titration to the lowest effective dose” value (daily, oral suspension, both the renal treated and non-renal treated groups) was 0.02 mg/kg. The “progression of renal parameters” value (non-renal group treated with meloxicam vs non-renal group not treated, median treatment duration 400 days) was “no differences”, the “loss of urine concentrating ability” value [1] was “no statistically significant differences” and the weight loss [1] was “no statistically significant differences”. For the same compound, the “progression of renal parameters” value (renal group (IRIS stage 1-3) treated with meloxicam vs age and IRIS matched untreated renal group, median treatment duration 527 days) was “no differences”, the “loss of urine concentrating ability” value [2] was “no statistically significant differences” and the weight loss [2] was “no statistically significant differences”. For the same compound, the “mean serum creatinine concentration increase over time” value (renal group treated with meloxicam vs renal untreated group) was “increased statistically significantly less”.
